In the assay the test system is p-IKKa levels in L363 (NIK translocated multiple myeloma) cells. Put plainly: Assay 2: Effect of compounds on p-IKKa levels in L363 (NIK translocated multiple myeloma) cells. Type of assay: cell-based. Particulars: Homo sapiens, L-363, 6 h, read-out: Assay 2 IC50 (nM), p-IKKa (Ser 176/180) in BAFF stimulated L363 cells with MG132, 6 h; average if tested more than once. The method in brief:
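L363 cells incubated overnight ± 250 ng/ml BAFF, then 6 h at 37 °C with compound (0.3% DMSO) ± 10 μM MG132. Lysates assayed for p-IKKa (Ser176/180) by AlphaLISA SureFire. IC50 from sigmoidal fit of % inhibition normalized to BAFF/MG132-stimulated and unstimulated controls.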

SMILES strings stand for the structures.

`CN1CC(F)(F)[C@@](O)(c2cc(-c3cccc(-c4ccnc(Nc5cnn6c5CCCC6)n4)n3)no2)C1=O` [Example 239, (R)-4,4-Difluoro-3-hydroxy-1-methyl-3-(3-(6-(2-((4,5,6,7-tetrahydropyrazolo[1,5-a]pyridin-3-yl)amino)pyrimidin-4-yl)pyridin-2-yl)isoxazol-5-yl)pyrrolidin-2-one]: the IC50 lay within 50 to 500 nM. In the case of `CN1C(=O)[C@](O)(c2cc(-c3cccc(-c4ccnc(Nc5cnn(C)c5)n4)n3)no2)[C@H]2C[C@H]21` [Example 240, (1R,4R,5S)-4-Hydroxy-2-methyl-4-(3-(6-(2-((1-methyl-1H-pyrazol-4-yl)amino)pyrimidin-4-yl)pyridin-2-yl)isoxazol-5-yl)-2-azabicyclo[3.1.0]hexan-3-one], the IC50 was 50 to 500 nM.

Take `Cc1c(Nc2nccc(-c3cccc(-c4cc([C@@]5(O)C(=O)N(C)[C@@H]6C[C@@H]65)on4)n3)n2)cnn1C` [Example 241, (1R,4R,5S)-4-(3-(6-(2-((1,5-Dimethyl-1H-pyrazol-4-yl)amino)pyrimidin-4-yl)pyridin-2-yl)isoxazol-5-yl)-4-hydroxy-2-methyl-2-azabicyclo[3.1.0]hexan-3-one]: the IC50 fell in the range of 50 to 500 nM. Then `Cc1c(Nc2nccc(-c3cccc(-c4cc([C@@]5(O)C(=O)N(C)CC5(F)F)on4)n3)n2)cnn1CC(C)(C)O` [Example 242, (R)-4,4-Difluoro-3-hydroxy-3-(3-(6-(2-((1-(2-hydroxy-2-methylpropyl)-5-methyl-1H-pyrazol-4-yl)amino)pyrimidin-4-yl)pyridin-2-yl)isoxazol-5-yl)-1-methylpyrrolidin-2-one], with 50 to 500 nM; and `CN1CC(F)(F)[C@@](O)(c2cc(-c3cccc(-c4ccnc(Nc5cnn6c5CCC6)n4)n3)no2)C1=O` [Example 243, (R)-3-(3-(6-(2-((5,6-Dihydro-4H-pyrrolo[1,2-b]pyrazol-3-yl)amino)pyrimidin-4-yl)pyridin-2-yl)isoxazol-5-yl)-4,4-difluoro-3-hydroxy-1-methylpyrrolidin-2-one], with under 50 nM. On to `Cc1cccc(Nc2nccc(-c3cccc(-c4cc([C@]5(O)CCN(C)C5=O)on4)n3)n2)n1` [Example 244, (R)-3-Hydroxy-1-methyl-3-(3-(6-(2-((6-methylpyridin-2-yl)amino)pyrimidin-4-yl)pyridin-2-yl)isoxazol-5-yl)pyrrolidin-2-one], for which the IC50 is 50 to 500 nM.

In the case of `Cc1cncc(Nc2nccc(-c3cccc(-c4cc([C@]5(O)CCN(C)C5=O)on4)n3)n2)c1` [Example 245, (R)-3-Hydroxy-1-methyl-3-(3-(6-(2-((5-methylpyridin-3-yl)amino)pyrimidin-4-yl)pyridin-2-yl)isoxazol-5-yl)pyrrolidin-2-one], the IC50 is over 500 nM.

Consider `Cc1cnccc1Nc1nccc(-c2cccc(-c3cc([C@]4(O)CCN(C)C4=O)on3)n2)n1` [Example 246, (R)-3-Hydroxy-1-methyl-3-(3-(6-(2-((3-methylpyridin-4-yl)amino)pyrimidin-4-yl)pyridin-2-yl)isoxazol-5-yl)pyrrolidin-2-one], for which the IC50 is over 500 nM.

As to `CN1CC[C@@](O)(c2cc(-c3cccc(-c4ccnc(Nc5cccnc5)n4)n3)no2)C1=O` [Example 247, (R)-3-Hydroxy-1-methyl-3-(3-(6-(2-(pyridin-3-ylamino)pyrimidin-4-yl)pyridin-2-yl)isoxazol-5-yl)pyrrolidin-2-one], the IC50 is over 500 nM. Then `CN1CC[C@@](O)(c2cc(-c3cccc(-c4ccnc(Nc5ccccn5)n4)n3)no2)C1=O` [Example 248, (R)-3-Hydroxy-1-methyl-3-(3-(6-(2-(pyridin-2-ylamino)pyrimidin-4-yl)pyridin-2-yl)isoxazol-5-yl)pyrrolidin-2-one], with 50 to 500 nM; and `CN1CC[C@@](O)(c2cc(-c3cccc(-c4ccnc(Nc5ccncc5)n4)n3)no2)C1=O` [Example 249, (R)-3-Hydroxy-1-methyl-3-(3-(6-(2-(pyridin-4-ylamino)pyrimidin-4-yl)pyridin-2-yl)isoxazol-5-yl)pyrrolidin-2-one], with under 50 nM. In the case of `CCn1cc(Nc2nccc(-c3cccc(-c4cc([C@]5(O)CCN(C)C5=O)on4)n3)n2)c(C)n1` [Example 250, (R)-3-(3-(6-(2-((1-Ethyl-3-methyl-1H-pyrazol-4-yl)amino)pyrimidin-4-yl)pyridin-2-yl)isoxazol-5-yl)-3-hydroxy-1-methylpyrrolidin-2-one], the IC50 was under 50 nM. Turning to `CN1CC[C@@](O)(c2cn(-c3cccc(-c4ccnc(Nc5cnn6c5CCCC6)n4)n3)nn2)C1=O` [Example 251, (R)-3-Hydroxy-1-methyl-3-(1-(6-(2-((4,5,6,7-tetrahydropyrazolo[1,5-a]pyridin-3-yl)amino)pyrimidin-4-yl)pyridin-2-yl)-1H-1,2,3-triazol-4-yl)pyrrolidin-2-one], the IC50 is under 50 nM. Take `Cc1nn(C2CCN(C)CC2)cc1Nc1nccc(-c2cccc(-c3cc([C@]4(O)CCN(C)C4=O)on3)n2)n1` [Example 252]: the IC50 lay within 50 to 500 nM.

`CCn1ccc(Nc2nccc(-c3cccc(-n4cc([C@]5(O)CCN(C)C5=O)nn4)n3)n2)n1` [Example 253, (3R)-3-[1-[6-[2-[(1-Ethylpyrazol-3-yl)amino]pyrimidin-4-yl]-2-pyridyl]triazol-4-yl]-3-hydroxy-1-methyl-pyrrolidin-2-one]: the IC50 was under 50 nM. On to `CN1CC[C@@](O)(c2cc(-c3cccc(-c4ccnc(Nc5ccc(F)cn5)n4)n3)no2)C1=O` [Example 254, (R)-3-(3-(6-(2-((5-Fluoropyridin-2-yl)amino)pyrimidin-4-yl)pyridin-2-yl)isoxazol-5-yl)-3-hydroxy-1-methylpyrrolidin-2-one], for which the IC50 lay within 50 to 500 nM.

For the molecule `COc1ccc(Nc2nccc(-c3cccc(-c4cc([C@]5(O)CCN(C)C5=O)on4)n3)n2)nn1` [Example 255, (R)-3-Hydroxy-3-(3-(6-(2-((6-methoxypyridazin-3-yl)amino)pyrimidin-4-yl)pyridin-2-yl)isoxazol-5-yl)-1-methylpyrrolidin-2-one], the IC50 lay in the range of 50 to 500 nM. The same measure for `Cc1ccc(Nc2nccc(-c3cccc(-c4cc([C@]5(O)CCN(C)C5=O)on4)n3)n2)nn1` [Example 256, (R)-3-Hydroxy-1-methyl-3-(3-(6-(2-((6-methylpyridazin-3-yl)amino)pyrimidin-4-yl)pyridin-2-yl)isoxazol-5-yl)pyrrolidin-2-one]: 50 to 500 nM. For `CN1CC[C@@](O)(c2cc(-c3cccc(-c4ccnc(Nc5ccnc6c5CCO6)n4)n3)no2)C1=O` [Example 257, (R)-3-(3-(6-(2-((2,3-Dihydrofuro[2,3-b]pyridin-4-yl)amino)pyrimidin-4-yl)pyridin-2-yl)isoxazol-5-yl)-3-hydroxy-1-methylpyrrolidin-2-one], the IC50 is under 50 nM.

On to `CN1CC[C@@](O)(c2cc(-c3cccc(-c4ccnc(Nc5nc(CN6CCCC6)cs5)n4)n3)no2)C1=O` [Example 258, (R)-3-Hydroxy-1-methyl-3-(3-(6-(2-((4-(pyrrolidin-1-ylmethyl)thiazol-2-yl)amino)pyrimidin-4-yl)pyridin-2-yl)isoxazol-5-yl)pyrrolidin-2-one], for which the IC50 is under 50 nM.

As to `CN1CC[C@@](O)(c2cc(-c3cccc(-c4ccnc(Nc5cnn6c5CCCC6)n4)n3)no2)C1=O` [Example 259, (R)-3-Hydroxy-1-methyl-3-(3-(6-(2-((4,5,6,7-tetrahydropyrazolo[1,5-a]pyridin-3-yl)amino)pyrimidin-4-yl)pyridin-2-yl)isoxazol-5-yl)pyrrolidin-2-one], the IC50 is under 50 nM.

Turning to `COCc1ccnc(Nc2nccc(-c3cccc(-c4cc([C@]5(O)CCN(C)C5=O)on4)n3)n2)c1` [Example 260, (R)-3-Hydroxy-3-(3-(6-(2-((4-(methoxymethyl)pyridin-2-yl)amino)pyrimidin-4-yl)pyridin-2-yl)isoxazol-5-yl)-1-methylpyrrolidin-2-one], the IC50 is under 50 nM. On to `CCn1cc(Nc2nccc(-c3cccc(-c4cc([C@@]5(O)C(=O)N(C)CC5(F)F)on4)n3)n2)cn1` [Example 261, (R)-3-(3-(6-(2-((1-Ethyl-1H-pyrazol-4-yl)amino)pyrimidin-4-yl)pyridin-2-yl)isoxazol-5-yl)-4,4-difluoro-3-hydroxy-1-methylpyrrolidin-2-one], for which the IC50 was under 50 nM. For `CN1CC[C@@](O)(c2cc(-c3cccc(-c4ccnc(Nc5cn(C)nc5F)n4)n3)no2)C1=O` [Example 262, (R)-3-(3-(6-(2-((3-Fluoro-1-methyl-1H-pyrazol-4-yl)amino)pyrimidin-4-yl)pyridin-2-yl)isoxazol-5-yl)-3-hydroxy-1-methylpyrrolidin-2-one], the IC50 was under 50 nM. Take `CN1CC[C@@](O)(c2cc(-c3cccc(-c4ccnc(Nc5ccn(C)n5)n4)n3)on2)C1=O` [Example 263, (R)-3-Hydroxy-1-methyl-3-(5-(6-(2-((1-methyl-1H-pyrazol-3-yl)amino)pyrimidin-4-yl)pyridin-2-yl)isoxazol-3-yl)pyrrolidin-2-one]: the IC50 is under 50 nM. Regarding `CN1CC[C@@](O)(c2cc(-c3cccc(-c4ccnc(Nc5cnn(C6COC6)c5)n4)n3)no2)C1=O` [Example 264, (R)-3-Hydroxy-1-methyl-3-(3-(6-(2-((1-(oxetan-3-yl)-1H-pyrazol-4-yl)amino)pyrimidin-4-yl)pyridin-2-yl)isoxazol-5-yl)pyrrolidin-2-one], the IC50 was under 50 nM.

In the case of `Cc1cnnc(Nc2nccc(-c3cccc(-c4cc([C@]5(O)CCN(C)C5=O)on4)n3)n2)n1` [Example 265, (R)-3-Hydroxy-1-methyl-3-(3-(6-(2-((5-methyl-1,2,4-triazin-3-yl)amino)pyrimidin-4-yl)pyridin-2-yl)isoxazol-5-yl)pyrrolidin-2-one], the IC50 is over 500 nM. Consider `CN1CC[C@@](O)(c2cc(-c3cccc(-c4ccnc(Nc5nc(C6CCOCC6)nn5C)n4)n3)no2)C1=O` [Example 266, (R)-3-Hydroxy-1-methyl-3-(3-(6-(2-((1-methyl-3-(tetrahydro-2H-pyran-4-yl)-1H-1,2,4-triazol-5-yl)amino)pyrimidin-4-yl)pyridin-2-yl)isoxazol-5-yl)pyrrolidin-2-one], for which the IC50 is over 500 nM.

Source of the values: patent publication US20250282768A1 (Janssen Pharmaceutica NV, priority 2022, published 2025).
